Results reported in paper PMC4731787, “Structural basis for the recognition of two consecutive mutually interacting DPF motifs by the SGIP1 μ homology domain” (Scientific Reports, 2016).
Like-named read-outs stand apart in the source and are kept apart here. GST = glutathione S-transferase fusion tag

B1: Eps15-618–648 (domain or fragment, human)
chain: GPLGSYDFFQSDPFVGSDPFKDDPFGKIDPFGGDPFK
notes: source: E. coli, expressed and purified in the same manner as the SGIP1 µHD
B2: Eps15-628–644 (peptide)
peptide: Ac-YSDPFKDDPFGKIDPFGG-NH2
notes: artificial N-terminal Tyr; source: synthetic peptide (Eurofins Genomics)
B3: Eps15-628–639 (peptide)
peptide: Ac-YSDPFKDDPFGKI-NH2
notes: as for B2
B4: Eps15-632–654 (peptide)
peptide: Ac-YKDDPFGKIDPFGGDPFKGSDPFA-NH2
notes: as for B2
B5: Eps15-632–644 (peptide)
peptide: Ac-YKDDPFGKIDPFGG-NH2
notes: artificial N-terminal Tyr; human Eps15 residues 632-644; source: synthetic peptide (Eurofins Genomics)
B6: Eps15-640–649 (peptide)
peptide: Ac-YDPFGGDPFKG-NH2
notes: extra (artificial) N-terminal Tyr residue, to facilitate the concentration determination by absorbance; source: synthetic peptide (Eurofins Genomics)
B7: Eps15-640–649D640E (peptide)
peptide: Ac-YEPFGGDPFKG-NH2
notes: as for B2
B8: Eps15-640–649D640N (peptide)
peptide: Ac-YNPFGGDPFKG-NH2
notes: as for B2
B9: Eps15-640–649D645N (peptide)
peptide: Ac-YDPFGGNPFKG-NH2
notes: as for B2
B10: Eps15-640–649F642W (peptide)
peptide: Ac-YDPWGGDPFKG-NH2
notes: as for B2
B11: Eps15-645–654 (peptide)
peptide: Ac-YDPFKGSDPFA-NH2
notes: as for B6
B12: Eps15-622–637 (peptide)
peptide: Ac-YSDPFVGSDPFKDDPFG-NH2
notes: as for B2
B13: GST-Eps15-530–594: GST-tagged Eps15 fragment, residues 530–594, 0 DPF motifs (protein)
chain: {GST}-STSSSETANLNEHVEGQSNLESEPIHQESPARSSPELLPSGVTDENEVTTAVTEKVCSELDNNRH
B14: GST-Eps15-595–660: GST-tagged Eps15 fragment, residues 595–660, 7 DPF motifs (protein, UniProt P42566 595-660, looked up, fragment)
chain: {GST}-SKEEDPFNVDSSSLTGPVADTNLDFFQSDPFVGSDPFKDDPFGKIDPFGGDPFKGSDPFASDCFFR

Key:
[1] = target: T1, SGIP1 μHD (residues 552 to 828) (Homo sapiens, UniProt Q9BQI5); experiment: ITC of Eps15 fragments with the SGIP1 μHD; format: binding; conditions: for Kd: 50 mM Tris-HCl pH 8.0, 50 mM NaCl, global fit of two runs
T1 construct: the SGIP1 μHD (residues 552 to 828); GST (N, cleaved yes); made in house; host or cells: Escherichia coli BL21-Gold (DE3) or Rosetta2
T1 sequence (Q9BQI5 552-828): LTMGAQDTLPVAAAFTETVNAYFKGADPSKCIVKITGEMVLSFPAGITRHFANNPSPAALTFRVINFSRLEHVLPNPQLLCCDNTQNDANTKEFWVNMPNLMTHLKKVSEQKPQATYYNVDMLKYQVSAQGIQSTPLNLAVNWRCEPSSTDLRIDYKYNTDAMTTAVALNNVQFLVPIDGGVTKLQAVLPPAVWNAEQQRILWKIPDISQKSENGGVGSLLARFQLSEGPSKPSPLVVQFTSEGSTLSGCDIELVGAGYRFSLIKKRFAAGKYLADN
Procedure: For the majority of the ITC experiments, the SGIP1 μHD, its mutants, or the FCHo1 μHD, in 50 mM Tris-HCl buffer (pH 8.0) containing 50 mM NaCl, was loaded in the sample cell, in a volume of 1.42 ml, and titrated with various Eps15-derived fragments or peptides in the same buffer, with an initial 5 μl injection and subsequent 10 μl injections, for a total of 25 injections. The titrations were performed while the samples were stirred at 310 r.p.m. at 25 °C. Each injection was followed by an interval of 4 min, to allow baseline stabilization. For the other ITC experiments indicated in Supplementary Table 2, the Eps15-derived fragments or peptides in the sample cell were titrated with the SGIP1 or FCHo1 μHD. All ITC experiments were performed on a VP-ITC microcalorimeter (MicroCal, LLC) and repeated twice, and the data were processed with the program NITPIC[42]. The two data sets from each ITC experiment were analyzed by global weighted least-squares fitting with the program SEDPHAT[43]. Figures for the ITC data were created with the program GUSSI (http://biophysics.swmed.edu/MBR/software.html). To obtain the values of the traditional stoichiometric parameter N in our ITC data analyses (Supplementary Table 2), we used the values of the parameters of the incompetent fractions of proteins and ligands. […] The values of the incompetent fractions are between 0 and 1, whereas the other parameter affecting the traditional parameter N, the number of sites, was fixed as 1 and 2, for the single- and two-site models, respectively. Thus, in the two-site model, the values of N for the first and second sites are identical in our ITC data analyses (Supplementary Table 2).

[2] = target: T2, SGIP1 µ homology domain (µHD), residues 552 to 828 (human, UniProt Q9BQI5-1 552-828); experiment: ITC; µHD, µHD mutant or α-adaptin appendage domain in the sample cell, titrated with the Eps15 fragment or peptide; 50 mM Tris-HCl (pH 8.0), 50 mM NaCl, 25 °C; VP-ITC; two data sets fitted globally (NITPIC, SEDPHAT); single-site model; conditions: both partners purified
T2 construct: pGEX-6P-1 construct cut with 3C protease; also called SGIP1 µHD; human SGIP1 µHD (aa552–828); source: E. coli BL21-Gold (DE3) or Rosetta2, purified (Glutathione Sepharose 4B, 3C protease cleavage, Superdex 200)
T2 sequence (looked up): T1 sequence (Q9BQI5 552-828)

[3] = 25 °C, μHD in sample cell titrated with Eps15 fragment, single-site model, ± 68.3% confidence interval
[4] = 25 °C, μHD in cell titrated with fragment, single-site model
[5] = 25 °C, μHD in cell titrated with fragment, single-site model, ± 68.3% confidence interval
[6] = μHD in cell titrated with fragment, single-site model, ± 68.3% confidence interval
[7] = 25 °C, fragment in cell titrated with μHD, two-site model, first site
[8] = 25 °C, fragment in cell titrated with μHD, two-site model, second site

Molecule | -TΔS [1, 4] [kcal/mol] | ΔG [1, 4] [kcal/mol] | ΔH [1, 5] [kcal/mol] | Kd [2] [µM] | also measured
Eps15-640–649P641L: P641L mutant of Eps15-640–649 (Ac-YDLFGGDPFKG-NH2) |  |  |  |  | Kd [1, 3]: below detection limit
Eps15-643–650: Eps15 fragment, residues 643–650, 1 DPF motif (Ac-YGGDPFKGS-NH2) |  |  |  |  | Kd [1, 3]: below detection limit
Eps15-650–659: Eps15 fragment, residues 650–659, 1 DPF motif (Ac-YSDPFASDCFF-NH2) |  |  |  |  | Kd [1, 3]: below detection limit
Eps15-640–649P646L: P646L mutant of Eps15-640–649 (Ac-YDPFGGDLFKG-NH2) |  |  |  |  | Kd [1, 3]: below detection limit
Eps15-618–648: Eps15 fragment containing the first five DPF motifs of Eps15-618–654 (DFFQSDPFVGSDPFKDDPFGKIDPFGGDPFK; UniProt P42566 618-648, looked up, fragment) | 0.581 | -8.722 | -9.303 ± 0.257 |  | N (binding ratio of Eps15 fragment to μHD) [1, 6]: 0.71± 0.02
Ac-YSTDPFATSSTDPFSA-NH2 [Eps15-662–676] | 1.395 | -5.327 | -6.722 ± 1.053 |  | binding to the SGIP1 μHD (in words) [1]: weakly bound to the μHD; Strength of affinity ([1]; human SGIP1 µHD (aa552–828), Supplementary Table 3, This study): low
Ac-YDPFKGSDPFA-NH2 [Eps15-645–654] | 3.566 | -6.344 | -9.91 ± 0.683 |  | N (binding ratio of Eps15 fragment to μHD) [1, 6]: 0.75 ± 0.02
Eps15-797–807: Eps15 fragment spanning residues 797 to 807, 2 DPF motifs (Ac-YPDPFKLNDPFQ-NH2) |  |  |  |  | binding to the SGIP1 μHD (in words) [1]: did not; Kd [1, 3]: below detection limit
Ac-YEPFGGDPFKG-NH2 [Eps15-640–649D640E] | -0.851 | -4.759 | -3.908 ± 0.595 |  | 
Ac-YDPFGGNPFKG-NH2 [Eps15-640–649D645N] | -1.138 | -5.642 | -4.504 ± 0.155 |  | 
Ac-YSDPFVGSDPFKDDPFG-NH2 [Eps15-622–637] | 1.967 | -7.247 | -9.214 ± 0.138 |  | binding to the SGIP1 μHD (in words) [1]: significantly reduced affinity as compared with that of Eps15-530–896; N (binding ratio of Eps15 fragment to μHD) [1, 6]: 0.85 ± 0.01
Ac-YDPWGGDPFKG-NH2 [Eps15-640–649F642W] | 2.227 | -4.965 | -7.192 ± 0.527 |  | 
Ac-YSDPFKDDPFGKI-NH2 [Eps15-628–639] | 1.528 | -4.882 | -6.41 ± 0.646 |  | 
Ac-YKDDPFGKIDPFGG-NH2 [Eps15-632–644] | -0.071 | -5.584 | -5.513 ± 0.12 |  | 
Ac-YSDPFKDDPFGKIDPFGGDPFKGSDPFA-NH2 [Eps15-628–654] | 1.711 | -8.135 | -9.846 ± 0.223 |  | Kd ([1]; 25 °C, μHD in sample cell titrated with Eps15 fragment, single-site model, ± 68.3% confidence interval, read-out: Kd): 1.1 ± 0.1 µM; N (binding ratio of Eps15 fragment to μHD) [1, 6]: 0.67 ± 0.01
Ac-YSDPFKDDPFGKIDPFGG-NH2 [Eps15-628–644] | 1.615 | -6.404 | -8.019 ± 0.169 |  | binding to the SGIP1 μHD (in words) [1]: significantly weaker affinity than Eps15-622–637 and Eps15-640–654; N (binding ratio of Eps15 fragment to μHD) [1, 6]: 0.76 ± 0.01
Eps15-640–649D645E: D645E mutant of Eps15-640–649 (Ac-YDPFGGEPFKG-NH2) |  |  |  |  | Kd [1, 3]: below detection limit

Molecule | -TΔS [1, 4] [kcal/mol] | ΔG [1, 4] [kcal/mol] | ΔH [1, 5] [kcal/mol] | Kd [2] [µM] | also measured
Ac-YKDDPFGKIDPFGGDPFKGSDPFA-NH2 [Eps15-632–654] | 1.453 | -7.491 | -8.944 ± 0.142 |  | N (binding ratio of Eps15 fragment to μHD) [1, 6]: 0.70 ± 0.01
Eps15-640–649F647W: F647W mutant of Eps15-640–649 (Ac-YDPFGGDPWKG-NH2) |  |  |  |  | Kd [1, 3]: below detection limit
Ac-YNPFGGDPFKG-NH2 [Eps15-640–649D640N] | -0.585 | -5.441 | -4.856 ± 0.193 |  | 
B1 |  |  |  |  | stoichiometry N [2]: 0.71
B2 |  |  |  | 20.2 | stoichiometry N [2]: 0.76
B3 |  |  |  | 264 | 
B4 |  |  |  | 3.2 | stoichiometry N [2]: 0.7
B5 |  |  |  | 80.8 | 
B6 |  |  |  | 30.2 | stoichiometry N [2]: 0.66
B7 |  |  |  | 325 | 
B8 |  |  |  | 103 | 
B9 |  |  |  | 73.1 | 
B10 |  |  |  | 229 | 
B11 |  |  |  | 22.4 | stoichiometry N [2]: 0.75
B12 |  |  |  | 4.9 | stoichiometry N [2]: 0.85
B13 |  |  |  |  | Kd [1, 3]: below detection limit
B14 |  |  |  |  | Kd ([1]; 25 °C, Eps15 fragment in cell titrated with SGIP1 μHD, two-site model, first (higher-affinity) site, ± 68.3% confidence interval, read-out: Kd): 0.046 ± 0.015 µM; Kd ([1]; 25 °C, Eps15 fragment in cell titrated with SGIP1 μHD, two-site model, second site, 68.3% confidence interval, read-out: Kd, second site): 16.6 ± 4.1 µM; -TΔS [1, 7]: -2.45 kcal/mol; ΔG [1, 7]: -10.012 kcal/mol; ΔH ([1]; 25 °C, fragment in cell titrated with μHD, two-site model, first site, ± 68.3% confidence interval): -7.562 ± 0.103 kcal/mol; -TΔS, second site [1, 8]: 0.328 kcal/mol; ΔG, second site [1, 8]: -6.52 kcal/mol; ΔH, second site ([1]; 25 °C, fragment in cell titrated with μHD, two-site model, second site, 68.3% confidence interval): -6.848 ± 0.772 kcal/mol; N (binding ratio of Eps15 fragment to μHD) ([1]; fragment in cell titrated with μHD, two-site model, first site (N identical for both sites), ± 68.3% confidence interval): 1.17 ± 0.02; N, second site ([1]; fragment in cell titrated with μHD, two-site model, second site (N identical for both sites), ± 68.3% confidence interval): 1.17 ± 0.02
